Source: ChEMBL document CHEMBL2021926, “Serendipity in discovery of proteasome inhibitors” (Bioorg Med Chem Lett, 2012)

Assays:
[1] = Inhibition of chymotrypsin-like activity of 26S proteasome
[2] = Inhibition of chymotrypsin-like activity of human liver 26S proteasome using Suc-LLVY-AMC substrate
[3] = Inhibition of chymotrypsin-like activity of 26S proteasome in human Molt4 cells using MeOSuc-Phe-Leu-Phe-AFC substrate; assay type: cell-based; conditions: MOLT-4

CC(C)C[C@@H](C=O)NC(=O)[C@H](CCCN/C(N)=N/[N+](=O)[O-])NC(=O)C(CCCCCCCCN1C(=O)c2ccccc2C1=O)C1CCCC1 (some centres undefined)
IC50 [1]: 2 nM

CC(C)C[C@@H](C=O)NC(=O)[C@H](CCCN/C(N)=N/[N+](=O)[O-])NC(=O)C(CCCCCCCCC#N)C1CCCC1 (some centres undefined)
IC50 [1]: 6 nM

CC(C)C[C@H](NC(=O)[C@H](CCCN/C(N)=N/[N+](=O)[O-])NC(=O)C(CCCCCCCCC#N)C1CCCC1)C(=O)C(=O)NCCNS(=O)(=O)c1ccccc1 (some centres undefined)
IC50 [1]: 1 nM

CC(C)C[C@H](NC(=O)[C@H](CCCN/C(N)=N/[N+](=O)[O-])NC(=O)C(CCCCCCCCC#N)C1CCCC1)B1OC(C)(C)C(C)(C)O1 (some centres undefined)
IC50 [1]: 6 nM

COCCOCCOCC(=O)N[C@H](C(=O)N[C@@H](CC(C)C)B1O[C@@H]2C[C@@H]3C[C@@H](C3(C)C)[C@]2(C)O1)[C@@H](C)O
IC50 [2]: > 10 nM

CC(C)C[C@H](NC(=O)[C@@H](NC(=O)OC(C)(C)C)[C@@H](C)O)B1O[C@@H]2C[C@@H]3C[C@@H](C3(C)C)[C@]2(C)O1
IC50 [2]: > 10 nM

CC(C)C[C@H](NC(=O)[C@@H](NC(=O)OCc1ccccc1)[C@@H](C)O)B1O[C@@H]2C[C@@H]3C[C@@H](C3(C)C)[C@]2(C)O1
IC50 [2]: > 10 nM

CC(C)C[C@H](NC(=O)[C@@H](N)[C@@H](C)O)B1O[C@@H]2C[C@@H]3C[C@@H](C3(C)C)[C@]2(C)O1
IC50 [2]: > 10 nM

CC(C)C[C@H](NC(=O)[C@@H](NC(=O)c1ccccc1)[C@@H](C)O)B1O[C@@H]2C[C@@H]3C[C@@H](C3(C)C)[C@]2(C)O1
IC50 [2]: > 10 nM

CCCCCC(=O)N[C@H](C(=O)N[C@@H](CC(C)C)B1O[C@@H]2C[C@@H]3C[C@@H](C3(C)C)[C@]2(C)O1)[C@@H](C)O
IC50 [2]: > 10 nM

CC(C)C[C@H](NC(=O)[C@@H](NC(=O)c1cnccn1)[C@@H](C)O)B1O[C@@H]2C[C@@H]3C[C@@H](C3(C)C)[C@]2(C)O1
IC50 [2]: > 10 nM

CC(C)C[C@H](NC(=O)[C@H](CCCN/C(N)=N/[N+](=O)[O-])NC(=O)C(CCCCCCCCN1C(=O)c2ccccc2C1=O)C1CCCC1)B1OC2C[C@@H]3C[C@@H](C3(C)C)[C@]2(C)O1 (some centres undefined)
EC50 [3]: 70 nM
IC50 [2]: 3.5 nM

CC(C)C[C@H](NC(=O)[C@@H](NC(=O)C(CCCCCCCCN1C(=O)c2ccccc2C1=O)C1CCCC1)[C@@H](C)O)B1O[C@@H]2C[C@@H]3C[C@@H](C3(C)C)[C@]2(C)O1 (mixture of isomers)
EC50 [3]: 100 nM
IC50 [2]: 7 nM

CC(C)C[C@H](NC(=O)C(NC(=O)[C@H](CC(C)C)NC(=O)OCc1ccccc1)C(C)O)B1O[C@@H]2C[C@@H]3C[C@@H](C3(C)C)[C@]2(C)O1 (single isomer, unassigned)
EC50 [3]: 120 nM
IC50 [2]: 1 nM

CC(C)C[C@H](NC(=O)[C@H](Cc1ccccc1)NC(=O)c1cnccn1)B(O)O [BORTEZOMIB]
EC50 [3]: 21 nM
IC50 [2]: 4 nM
